Data published in paper PMC4169440, “Sequence Analysis and Molecular Characterization of Clonorchis sinensis Hexokinase, an Unusual Trimeric 50-kDa Glucose-6-Phosphate-Sensitive Allosteric Enzyme” (PLoS ONE, 2014).

Experiments:
[1] = biological target: T1, rCsHK (recombinant Clonorchis sinensis hexokinase, CsHK) (Clonorchis sinensis, UniProt G7YJ23); assay: G6PD-coupled NADPH assay at […] nm; assay type: biochemical; conditions: 3 mM glucose, with respect to ATP
T1 construct: gene CLF_109217; homotrimer about 164 kDa
T1 sequence (G7YJ23 1-449): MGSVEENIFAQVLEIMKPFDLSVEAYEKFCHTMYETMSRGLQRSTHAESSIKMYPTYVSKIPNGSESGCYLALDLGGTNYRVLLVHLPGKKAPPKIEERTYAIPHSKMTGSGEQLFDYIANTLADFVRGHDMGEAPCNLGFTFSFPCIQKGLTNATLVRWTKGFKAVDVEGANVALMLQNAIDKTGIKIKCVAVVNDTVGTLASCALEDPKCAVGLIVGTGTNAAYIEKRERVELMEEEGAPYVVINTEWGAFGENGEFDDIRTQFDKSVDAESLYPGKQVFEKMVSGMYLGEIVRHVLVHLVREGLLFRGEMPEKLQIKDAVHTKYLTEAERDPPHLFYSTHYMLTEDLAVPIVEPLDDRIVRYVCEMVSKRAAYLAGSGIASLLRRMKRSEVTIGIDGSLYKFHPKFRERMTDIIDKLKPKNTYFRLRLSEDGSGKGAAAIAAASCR

[2] = biological target: T1, rCsHK (recombinant Clonorchis sinensis hexokinase, CsHK); assay: coupled pyruvate kinase / lactate dehydrogenase ADP assay at […] nm; assay type: biochemical; conditions: 0-4 mM G6P; with respect to ATP or glucose; allosteric inhibitor, dose-independent; also product
[3] = biological target: T1, rCsHK (recombinant Clonorchis sinensis hexokinase, CsHK); assay: G6PD-coupled NADPH assay at […] nm; assay type: biochemical; conditions: read-out: relative enzymatic activity at 4 mM
purified protein = substrate: Nc1ncnc2c1ncn2[C@@H]1O[C@H](COP(=O)(O)OP(=O)(O)OP(=O)(O)O)[C@@H](O)[C@H]1O; assay: purified protein; assay type: biochemical, Clonorchis sinensis; conditions: 3 mM glucose, 15 mM MgCl2, 100 mM Tris-Cl pH 8.5, 37 °C, sigmoidal, Mg-ATP true substrate

## Nc1ncnc2c1ncn2[C@@H]1O[C@H](COP(=O)(O)OP(=O)(O)O)[C@@H](O)[C@H]1O [ADP]
[1]; 0-3 mM ADP, mixed allosteric effector, also product
  G6PD-coupled NADPH assay at 340 nm: ADP, which is a product of HK, exhibited an unusual mixed allosteric effect on CsHK

## O=P(O)(O)OC[C@H]1OC(O)[C@H](O)[C@@H](O)[C@@H]1O (some centres unmarked) [glucose-6-phosphate]
[2]
  coupled pyruvate kinase / lactate dehydrogenase ADP assay at 340 nm: Different concentrations G6P displayed the net allosteric inhibition of rCsHK

## O=P(O)(O)OP(=O)(O)O [inorganic pyrophosphate]
[1]; 0-3 mM PPi, allosteric activator, not a substrate
  G6PD-coupled NADPH assay at 340 nm: Different concentrations of PPi displayed a net allosteric activation of rCsHK with respect to ATP

## O=C(C1CCCCC1)N1CC(=O)N2CCc3ccccc3C2C1 (centres unmarked) [praziquantel]
[3]
  activity at 4000 µM: 45%

B1: rCsHK (recombinant Clonorchis sinensis hexokinase, CsHK) (Clonorchis sinensis) (protein)
chain: MGSVEENIFAQVLEIMKPFDLSVEAYEKFCHTMYETMSRGLQRSTHAESSIKMYPTYVSKIPNGSESGCYLALDLGGTNYRVLLVHLPGKKAPPKIEERTYAIPHSKMTGSGEQLFDYIANTLADFVRGHDMGEAPCNLGFTFSFPCIQKGLTNATLVRWTKGFKAVDVEGANVALMLQNAIDKTGIKIKCVAVVNDTVGTLASCALEDPKCAVGLIVGTGTNAAYIEKRERVELMEEEGAPYVVINTEWGAFGENGEFDDIRTQFDKSVDAESLYPGKQVFEKMVSGMYLGEIVRHVLVHLVREGLLFRGEMPEKLQIKDAVHTKYLTEAERDPPHLFYSTHYMLTEDLAVPIVEPLDDRIVRYVCEMVSKRAAYLAGSGIASLLRRMKRSEVTIGIDGSLYKFHPKFRERMTDIIDKLKPKNTYFRLRLSEDGSGKGAAAIAAASCR
notes: homotrimer about 164 kDa
Purified protein
  K0.5: 0.459 ± 0.007 mM
